# Results from patent publication US10092002B2, “Herbicidal composition comprising nicosulfuron or its salt and S -metolachlor or its salt” (ISHIHARA SANGYO KAISHA, LTD., priority 2011, dated 2018).
# What was measured:
# Assay type in all cases: in vivo
# [1] = tested on: sunn-hemp (Crotalaria juncea L.); experiment: Test Example 4: soil treatment, sunn-hemp, visual growth inhibition rate; details: Crotalaria juncea, soil, read-out: Growth inhibition rate (%) of sunn-hemp, Measured value
# Description: In a case where three active ingredients are combined, the activity can be similarly calculated as follows. E2=(α+β+γ)−(αβ+αγ+βγ)/100+(αβγ)/10000 where α: growth inhibition rate when treated with x (g/ha) of herbicide X,
# Growth inhibition rate (%)=0 (equivalent to the non-treated area) to 100 (complete kill)
# Upland field soil was put into a 1/300,000 ha pot, and seeds of sunn-hemp (Crotalaria juncea L.) were sown.
# [2] = tested on: common cocklebur (Xanthium strumarium L.); experiment: Test Example 1: foliar treatment of common cocklebur in pots, visual growth inhibition rate; details: Xanthium strumarium, foliar treatment at 4.3 to 4.8-leaf stage, 22nd day after treatment, read-out: Growth inhibition rate (%) of common cocklebur, Measured value
# Description: When the herbicidal activity in a case where two active ingredients are combined, is larger than the simple sum of the respective herbicidal activities of the two active ingredients (the expected activity), it is called a synergistic effect. The activity expected by the combination of two active ingredients can be calculated as follows (Colby S. R., “Weed”, vol. 15, p. 20-22, 1967). E1=α+β-(α×β÷100) In a case where three active ingredients are combined, the activity can be similarly calculated as follows. […] Upland field soil was put into a 1/1,000,000 ha pot, and seeds of common cocklebur (Xanthium strumarium L.) were sown. […] Dual Gold, manufactured by Syngenta Crop Protection AG), SC agent containing terbuthylazine as an active ingredient (tradename: Click, manufactured by BASF), SC agent containing mesotrione as an active ingredient (tradename: Callisto, manufactured by Syngenta Crop Protection AG) and WG agent containing prosulfuron as an active ingredient (tradename: Peak, manufactured by Syngenta Crop Protection AG) were diluted with water in an amount corresponding to 1,000 Uha, and applied for foliar treatment by a small sprayer. On the 22nd day after treatment, the state of growth of the common cocklebur was visually observed to determine the growth inhibition rate in accordance with the following evaluation standard. The growth inhibition rate (%) (measured value) and the growth inhibition rate (%) (calculated value) calculated by the Colby's formula are shown in Table 1.
# [3] = tested on: wild oat (Avena fatua L.); experiment: Test Example 3: soil treatment, wild oat, visual growth inhibition rate; details: Avena fatua, soil treatment the day after sowing, 14th day after treatment, read-out: Growth inhibition rate (%) of wild oat, Measured value
# Description: When the herbicidal activity in a case where two active ingredients are combined, is larger than the simple sum of the respective herbicidal activities of the two active ingredients (the expected activity), it is called a synergistic effect. The activity expected by the combination of two active ingredients can be calculated as follows (Colby S. R., “Weed”, vol. 15, p. 20-22, 1967). […] In a case where three active ingredients are combined, the activity can be similarly calculated as follows. […] On the 22nd day after treatment, the state of growth of the common cocklebur was visually observed to determine the growth inhibition rate in accordance with the following evaluation standard. The growth inhibition rate (%) (measured value) and the growth inhibition rate (%) (calculated value) calculated by the Colby's formula are shown in Table 1. […] On the 14th day after treatment, the state of growth of the wild oat was visually observed to determine the growth inhibition rate.
smiles,measurement,setting,value
"COCCOCc1nc(C(F)(F)F)ccc1C(=O)C1=C(O)C2CCC(C2)C1=O (centres unmarked) [Bicyclopyrone, 4-hydroxy-3-{2-[(2-methoxyethoxy)methyl]-6-(trifluoromethyl)-3-pyridylcarbonyl}bicyclo[3.2.1]oct-3-en-2-one]",inhibition at 25 g/ha,[1],0%
same,inhibition at 150 g/ha,[1],20%
"CS(=O)(=O)c1ccc(C(=O)C2C(=O)CCCC2=O)c([N+](=O)[O-])c1 [Mesotrione, 2-(4-mesyl-2-nitrobenzoyl)cyclohexane-1,3-dione]",inhibition at 50 g/ha,[2]; dose 50 g/ha,0%
same,inhibition at 25 g/ha,[3]; dose 25 g/ha,0%
same,inhibition at 150 g/ha,[3]; dose 150 g/ha,5%
"COc1nc(C)nc(NC(=O)NS(=O)(=O)c2ccccc2CCC(F)(F)F)n1 [Prosulfuron, 1-(4-methoxy-6-methyl-1,3,5-triazin-2-yl)-3-[2-(3,3,3-trifluoropropyl)phenylsulfonyl]urea]",inhibition at 15 g/ha,[2]; dose 15 g/ha,88%
same,inhibition at 2.5 g/ha,[3]; dose 2.5 g/ha,25%
same,inhibition at 50 g/ha,[3]; dose 50 g/ha,0%
"CCNc1nc(Cl)nc(NC(C)(C)C)n1 [Terbuthylazine, N^2-tert-butyl-6-chloro-N^4-ethyl-1,3,5-triazine-2,4-diamine]",inhibition at 500 g/ha,[2]; dose 500 g/ha,10%
same,inhibition at 250 g/ha,[3]; dose 250 g/ha,25%
same,inhibition at 1500 g/ha,[3]; dose 1500 g/ha,5%
